This is an account of results in paper PMC4457932, “Characterization of Spirometra erinaceieuropaei Plerocercoid Cysteine Protease and Potential Application for Serodiagnosis of Sparganosis” (PLoS Neglected Tropical Diseases, 2015).

Residues, ends and D or L forms follow the SMILES beside them. *: point of attachment. AMC = Cc1cc(=O)oc2cc(N*)ccc12; Cbz = O=C(OCc1ccccc1)*

The target of test [1] is T1, rSeCP (Spirometra erinaceieuropaei, UniProt O02586).
T1 construct: MBP fusion (pMAL-c2X, E. coli TB1), 19-residue signal peptide omitted, proform 36 kDa plus MBP 43 kDa, 79 kDa, tag kept; full-length ORF 336 residues
T1 sequence (O02586 entry or part of it): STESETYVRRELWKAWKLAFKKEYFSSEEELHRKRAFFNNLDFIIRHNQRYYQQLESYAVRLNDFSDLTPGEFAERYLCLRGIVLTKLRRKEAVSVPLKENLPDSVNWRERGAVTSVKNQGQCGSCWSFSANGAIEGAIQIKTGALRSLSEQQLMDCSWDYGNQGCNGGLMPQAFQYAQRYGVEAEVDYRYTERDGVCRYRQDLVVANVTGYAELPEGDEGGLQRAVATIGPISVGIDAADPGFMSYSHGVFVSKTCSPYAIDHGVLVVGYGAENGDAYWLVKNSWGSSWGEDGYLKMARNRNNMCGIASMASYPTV
Kind of test: fluorogenic peptidase assay, Z-Phe-Arg-AMC. Format: biochemical. An excerpt:
fluorogenic peptidase assay, Z-Phe-Arg-AMC on rSeCP

In test [2] the target is T1, rSeCP. Kind of test: AMC fluorescence, […] nm. Format: biochemical. The settings on record: 3 μM substrate, 100 mM sodium acetate, 5 mM DTT, pH 5.5, 37°C.

In the case of `CC(C)C[C@H](NC(=O)[C@H]1O[C@@H]1C(=O)O)C(=O)NCCCCN=C(N)N` [E-64, L-trans-epoxysuccinyl-leucylamide (4-guanidino) butane], the activity at 5 µM in test [1] came to 0.8%. For `Cc1cc(=O)oc2cc(NC(=O)[C@H](CCCNC(=N)N)NC(=O)[C@H](Cc3ccccc3)NC(=O)OCc3ccccc3)ccc12` [Z-Phe-Arg-AMC, Z-carbobenzoxy-L-phenylalanyl-L-arginine-(7-amino-4-methylcoumarin)] (Cbz-Phe-Arg-{AMC}), the “AMC fluorescence, 355/460 nm” value in test [2] was “determined by cleavage of the fluorescent substrate Z-carbobenzoxy-L-phenylalanyl-L-arginine-(7-amino-4-methylcoumarin) (Z-Phe-Arg-AMC, Sigma)”.
